Data published in patent US12583851B2, “Heteroaryl-substituted pyrazine derivatives as pesticides” (Elanco Animal Health GmbH, priority 2019, dated 2026).

Tests used:
Type in all cases: in vivo
[1] = test system: adult cat fleas (Ctenocephalides felis); test: Ctenocephalides felis in-vitro contact test, adult cat flea; conditions: after 48 hours, read-out: efficacy (fleas dead or moribund); for pest or weed control at 1 µg/cm2, 100 g/ha: 1 μg/cm^2 (=100 g/ha); for pest or weed control at 5 µg/cm2, 500 g/ha: 5 μg/cm^2 (=500 g/ha)
Method in brief: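 Acetone solution coated onto glass tube walls; 900 ppm gives 5 μg/cm². Once dry, 5–10 adult fleas per tube held at room temperature for 48 h. Efficacy (%) is the share of fleas dead or moribund, i.e. unable to climb away on a 45–50° C heating plate.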

[2] = test system: Rhipicephalus (Boophilus) microplus larvae (strain Parkhurst, resistant against synthetic pyrethroids); test: Rhipicephalus (Boophilus) microplus in-vitro contact test, larval cattle tick; conditions: after 48 hours, read-out: efficacy (larvae dead or moribund); for pest or weed control at 1 µg/cm2, 100 g/ha: 1 μg/cm^2 (=100 g/ha); for pest or weed control at 5 µg/cm2, 500 g/ha: 5 μg/cm^2 (=500 g/ha)
Method in brief: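 Acetone solutions were coated onto glass tube walls (900 ppm gives 5 μg/cm²); after drying, 20–50 pyrethroid-resistant Parkhurst larvae added and held at 27 °C, 85% RH. At 48 h, efficacy as % larvae dead or moribund, judged by loss of negative geotaxis.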

[3] = test system: adult brown dog ticks (Rhipicephalus sanguineus); test: Rhipicephalus sanguineus in-vitro contact test, adult brown dog ticks; conditions: 48 h, 5 μg/cm^2 (=500 g/ha), after 48 hours, read-out: efficacy (ticks dead or moribund)
Method in brief: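 Acetone solution coated on glass tube inner walls (900 ppm, giving 5 μg/cm^2); after drying, 5–10 adult ticks added and kept 48 h at room temperature. Efficacy scored as percent dead or moribund, i.e., ticks unable to climb away on a 45–50 °C heating plate within 5 min.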

[4] = test system: green peach aphid (Myzus persicae); test: Myzus persicae oral test; conditions: 120 h, 4 ppm, after 5 days
Procedure: Solvent: 100 parts by weight acetone
(§1) To produce a suitable preparation of active compound, 1 part by weight of active compound is mixed with the stated amount of solvent, and the concentrate is diluted with water to the desired concentration.
50 μL compound solution is filled in microtiter plates and 150 μL IPL41 insect medium (33%+15% sugar) is added to obtain a total volume of 200 μL per well. Afterwards the plates are sealed with parafilm through which a mixed population of the green peach aphid (Myzus persicae) can suck on the compound preparation.
(§2) After 5 days mortality in % is determined. 100% means all aphids have been killed and 0% means none of the aphids have been killed.

[5] = test system: larvae of the banded cucumber beetle (Diabrotica balteata); test: Diabrotica balteata spray test; conditions: 168 h, after 7 days, read-out: efficacy (seedling growth); for pest or weed control at 32 µg/disc, 100 g/ha: 100 g/ha (=32 μg/well); for pest or weed control at 6.4 µg/disc, 20 g/ha: 20 g/ha (=6.4 μg/well)
Method in brief: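 Germinated wheat seedlings (5 per well, on agar) sprayed with compound in acetone/DMF with emulsifier-containing water, then infested with 10–20 Diabrotica balteata larvae. Efficacy (%) scored after 7 days from seedling growth: 100% = growth as untreated uninfested control, 0% = no seedlings grown.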

[6] = test system: southern root-knot nematode (Meloidogyne incognita); test: Meloidogyne incognita test; conditions: 20 ppm, after 14 days
Procedure: Meloidogyne incognita—Test
Solvent: 125.0 parts by weight of acetone
as §1
Vessels are filled with sand, a solution of the active ingredient, a suspension containing eggs and larvae of the southern root-knot nematode (Meloidogyne incognita) and salad seeds. The salad seeds germinate and the seedlings grow. Galls develop in the roots.
After 14 days the nematicidal activity is determined based on the percentage of gall formation. 100% means no galls were found and 0% means the number of galls found on the roots of the treated plants was equal to that in untreated control plants.

[7] = test system: adult unfed cat fleas (Ctenocephalides felis); test: Ctenocephalides felis oral test; conditions: 48 h, 100 ppm in citrated cattle blood, after 2 days
Procedure: Ctenocephalides felis—Oral Test
(§3) Solvent: dimethyl sulfoxide
To produce a suitable preparation of active compound, 10 mg of active compound are dissolved in 0.5 mL solvent, and the concentrate is diluted with citrated cattle blood to the desired concentration.
Approximately 20 adult unfed cat fleas (Ctenocephalides felis) are placed in a flea chamber whose top and bottom is covered with gauze. A chamber whose bottom is sealed with parafilm, is filled with the blood-compound solution and placed on top of the flea chamber, so that the fleas can suck the blood. The blood chamber is heated to 37° C. whereas the flea chamber is kept at room temperature.
After 2 days mortality in % is determined. 100% means all the fleas have been killed; 0% means none of the fleas have been killed.

[8] = test system: fall armyworm larvae (Spodoptera frugiperda); test: Spodoptera frugiperda spray test; conditions: 168 h, maize leaf sections, after 7 days
Method in brief: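 Compound dissolved in acetone/dimethylformamide, diluted in water containing 1000 ppm alkylarylpolyglycol ether emulsifier and sprayed onto maize leaf sections. Dried sections were infested with larvae; % mortality scored after 7 days (100% = all caterpillars killed, 0% = none).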

[9] = test system: adult engorged female ticks (Rhipicephalus microplus); test: Rhipicephalus (Boophilus) microplus injection test; conditions: 168 h, 4 μg/animal, egg deposition after 7 days, read-out: efficacy (infertile eggs)
Procedure: Rhipicephalus (Boophilus) microplus—Injection Test
as §3
To produce a suitable preparation of active compound, 10 mg of active compound are dissolved in 0.5 mL solvent, and the concentrate is diluted with solvent to the desired concentration.
Five adult engorged female ticks (Rhipicephalus microplus) are injected with 1 μL compound solution into the abdomen. The ticks are transferred into replica plates and incubated in a climate chamber.
After 7 days egg deposition of fertile eggs is monitored. Eggs where fertility is not visible are stored in a climate chamber till hatching after about 42 days. An efficacy of 100% means all eggs are infertile; 0% means all eggs are fertile.

[10] = test system: green peach aphid (Myzus persicae); test: Myzus persicae spray test; conditions: foliar, 120 h, Chinese cabbage leaf disks, after 5 days
Procedure: Myzus persicae—Spray Test
Solvent: 78.0 parts by weight acetone • 1.5 parts by weight dimethylformamide
(§4) Emulsifier: alkylarylpolyglycol ether
(§5) To produce a suitable preparation of active compound, 1 part by weight of active compound is mixed with the stated amount of solvents and is diluted with water, containing an emulsifier concentration of 1000 ppm, to the desired concentration. Further test concentrations are prepared by dilution with emulsifier containing water.
Chinese cabbage (Brassica pekinensis) leaf disks infected with all instars of the green peach aphid (Myzus persicae), are sprayed with a preparation of the active ingredient of the desired concentration.
as §2

[11] = test system: adult flies Musca domestica strain WHO-N; test: Musca domestica test (MUSCDO surface treatment & contact assay); conditions: surface concentration 20 mg/m^2, 30 minutes exposure, 24 hours after contact, read-out: mortality (efficacy)
Procedure: Musca domestica Test (MUSCDO Surface Treatment & Contact Assay)
(§6) Solvent: Aceton+2000 ppm rapeseed oil methyl ester (RME)
(§7) In order to produce a sufficient, active ingredient containing solution it is necessary to solve the test compound in the solvent-mix (acetone at 2 mg/ml/RME 2000 ppm). This solution is pipetted onto a glazed tile and after evaporation of the acetone, adult flies of the species Musca domestica strain WHO-N are placed onto the dried surface. The exposure time is 30 minutes.
(§8) Mortality in percent (%) is determined 24 hours after contact of the insects to the treated surface. 100% mortality means that all tested insects are dead, whereas 0% means that no insect died.

[12] = test system: adult mosquitoes Anopheles funestus strain FUMOZ-R; test: Anopheles funestus test (ANPHFU surface treatment & contact assay); conditions: 24 hours after contact, read-out: mortality (efficacy); for mortality at 20 mg/m2: surface concentration 20 mg/m^2, 30 minutes exposure
Procedure: Anopheles funestus Test (ANPHFU Surface Treatment & Contact Assay)
as §6
as §7, with “mosquitoes” for “flies”, “Anopheles funestus” for “Musca domestica”, “FUMOZ-R (Hunt et al., Med. Vet. Entomol. 2005 Sep. 19(3): 271-275)” for “WHO-N”
as §8

[13] = test system: brown planthopper (Nilaparvata lugens); test: Nilaparvata lugens spray test; conditions: 96 h, 500 g/ha, rice plants, after 4 days
Procedure: Nilaparvata lugens—Spray Test
(§9) Solvent: 78.0 parts by weight of acetone • • 1.5 parts by weight of dimethylformamide
as §4, §5
Rice plants (Oryza sativa) are sprayed with a preparation of the active ingredient of the desired concentration and the plants are infested with the brown planthopper (Nilaparvata lugens).
After 4 days mortality in % is determined. 100% means all planthoppers have been killed and 0% means none of the planthoppers have been killed.

[14] = test system: adult mosquitoes Aedes aegypti strain MONHEIM; test: Aedes aegypti test (AEDSAE surface treatment & contact assay); conditions: 24 hours after contact, read-out: mortality (efficacy); for mortality at 20 mg/m2: surface concentration 20 mg/m^2, 30 minutes exposure
Procedure: Aedes aegypti Test (AEDSAE Surface Treatment & Contact Assay)
as §6
as §7, with “mosquitoes” for “flies”, “Aedes aegypti” for “Musca domestica”, “MONHEIM” for “WHO-N”
as §8

[15] = test system: larvae of the southern green stink bug (Nezara viridula); test: Nezara viridula spray test; conditions: 96 h, 100 g/ha, barley plants, after 4 days
Procedure: Nezara viridula—Spray Test
as §9, §4
as §5, with “solvent,” for “solvents”, “and the concentrate” for “and”
Barley plants (Hordeum vulgare) infested with larvae of the southern green stink bug (Nezara viridula) are sprayed with a test solution containing the desired concentration of the active ingredient.
After 4 days mortality in % is determined. 100% means all the stink bugs have been killed; 0% means none of the stink bugs have been killed.

[16] = surface concentration 4 mg/m^2, 30 minutes exposure

Row | Compound | pest or weed control at 1 µg/cm2, 100 g/ha [1] [%] | pest or weed control at 5 µg/cm2, 500 g/ha [1] [%] | pest or weed control at 1 µg/cm2, 100 g/ha [2] [%] | pest or weed control at 5 µg/cm2, 500 g/ha [2] [%] | pest or weed control at 5 µg/cm2, 500 g/ha [3] [%] | mortality at 4 ppm [4] [%] | pest or weed control at 32 µg/disc, 100 g/ha [5] [%] | nematicidal activity (based on gall formation) [6] [%] | mortality at 100 ppm [7] [%] | mortality at 100 g/ha [8] [%] | pest or weed control at 0.004 mg [9] [%] | pest or weed control at 6.4 µg/disc, 20 g/ha [5] [%] | mortality at 100 g/ha [10] [%] | mortality at 20 mg/m2 [11] [%] | mortality at 20 mg/m2 [12] [%] | mortality at 500 g/ha [13] [%] | mortality at 20 mg/m2 [14] [%] | mortality at 4 mg/m2 [12, 16] [%] | mortality at 4 mg/m2 [14, 16] [%] | mortality at 100 g/ha [15] [%]
1 | CC(NC(=O)c1cc(C(F)(F)F)cc(C(F)(F)F)c1)c1nccnc1-c1ccc(C(=O)N2CCOCC2)cn1 (racemic) [Example I-34, (rac)-N-[1-{3-[5-(morpholine-4-carbonyl)pyridin-2-yl]pyrazin-2-yl}ethyl]-3,5-bis(trifluoromethyl)benzamide] | 80 | 90 | 100 | 100 | 80 | 100 | 80 |  |  |  |  |  |  |  |  |  |  |  |  | 
2 | CC(NC(=O)c1cc(Br)cc(C#N)c1)c1nccnc1-c1nccs1 (racemic) [Example I-55, (rac)-3-Bromo-5-cyano-N-{1-[3-(1,3-thiazol-2-yl)pyrazin-2-yl]ethyl}benzamide] |  |  |  |  |  |  |  | 100 | 100 |  |  |  |  |  |  |  |  |  |  | 
3 | CC(NC(=O)c1cc(C(F)(F)F)cc(C(F)(F)F)c1)c1nccnc1-c1ccc(Cl)cn1 (centres unmarked) [Example I-20] |  |  | 100 | 100 |  | 90 | 100 |  |  | 100 | 80 | 80 |  |  |  |  |  |  |  | 
4 | CC(NC(=O)c1cc(Br)cc(OC(F)(F)F)c1)c1nccnc1-c1ccccn1 (centres unmarked) [Example I-17] |  |  | 80 | 90 |  |  | 100 | 90 | 100 | 83 | 100 | 100 |  |  |  |  |  |  |  | 
5 | CC(NC(=O)c1cc(Cl)cc(Br)c1)c1nccnc1-c1nccs1 (racemic) [Example I-54, (rac)-3-Bromo-5-chloro-N-{1-[3-(1,3-thiazol-2-yl)pyrazin-2-yl]ethyl}benzamide] |  |  |  | 90 | 80 |  | 100 | 90 |  |  |  |  |  |  |  |  |  |  |  | 
6 | CC(NC(=O)c1cc(C(F)(F)F)cc(C(F)(F)F)c1)c1nccnc1-c1ncc(C(=O)N(CC2CC2)C(C)C)s1 (racemic) [Example I-63, (rac)-2-(3-{1-[3,5-Bis(trifluoromethyl)benzamido]ethyl}pyrazin-2-yl)-N-(cyclopropylmethyl)-N-(propan-2-yl)-1,3-thiazole-5-carboxamide] |  |  |  |  |  |  | 100 | 90 |  | 100 | 100 | 100 |  |  |  |  |  |  |  | 
7 | CCN(C)C(=O)c1cnc(-c2nccnc2[C@H](C)NC(=O)c2cc(C(F)(F)F)cc(C(F)(F)F)c2)s1 [Example I-85, 2-(3-{(1S)-1-[3,5-bis(trifluoromethyl)benzamido]ethyl}pyrazin-2-yl)-N-ethyl-N-methyl-1,3-thiazole-5-carboxamide] | 100 | 100 | 100 | 100 | 100 |  | 100 |  |  | 100 |  | 100 | 90 | 80 to 100 | 80 to 100 | 100 | 80 to 100 |  |  | 
8 | CC(NC(=O)c1cncc(C(F)(F)F)c1)c1nccnc1-c1ncccn1 (racemic) [Example I-9, (rac)-N-(1-(3-(Pyrimidin-2-yl)pyrazin-2-yl)ethyl)-5-(trifluoromethyl)nicotinamide] |  |  | 100 | 100 | 80 |  |  |  | 80 |  | 100 |  |  |  | 80 to 100 |  | 80 to 100 | 80 to 100 | 80 to 100 | 90
